These results are taken from patent US5482970A (priority 1993, dated 1996).

Series [1] is described as follows: In vitro skin permeation and metabolism of Carbopol 940 gels, Franz diffusion cell (Example 13). The series is classed as in vitro ADME, hairless mouse. As to conditions: for Transdermal Flux Q1, Inocoterone: metabolite; for metabolised at 5 h: mouse, read-out: % Metabolite. The procedure:
For the evaluation of pharmaceutical compositions of the present invention, the freshly excised hairless mouse skin was used in the diffusion cell method of Franz, Current Problems in Dermatology, 7, 58-68 (1978), in a vertical position, the exposed area of the skin being approximately 1.8 cm^2. The pharmaceutical formulation of known concentration in vehicle was added to the upper compartment of the cell, which was exposed to the stratum corneum side of the skin, and a 40% polyethylene glycol 400/normal saline solution was placed in the lower compartment The penetration and metabolism rates were studied in a thermostated diffusion cell at 37° C. using the analytical method described above. Each experiment was carried out in at least triplicate. This method was used in Examples 7 and 13.
In this example the simultaneous skin permeation and metabolism rates of inocoterone acetate incorporated in the Carbopol 940 gels formulated using the compositions described in Example 7 are shown.

A short description of series [2]: In vitro skin permeation and metabolism, two-compartment diffusion cell (Example 6). The series is classed as in vitro ADME, hairless mouse (HRS/J strain). The note with it: for Transdermal Flux Q1, Inocoterone: metabolite from applied inocoterone acetate; for metabolised at 5 h: mouse, of total permeated, read-out: % Metabolite. The text has this: (§1) The freshly excised hairless mouse skin was used in the two-compartment diffusion cell method of Chlen et at., Drug Development and Industrial Pharmacy, 11, […] (1985). The hairless mouse (HRS/J strain) was sacrificed just prior to the experiment by cervical dislocation. A square section of the abdominal skin was surgically removed and mounted between two side-by-side half cells; the exposed area of the skin being approximately 0.64 cm^2. A 1-10% weight/volume (w/v) solution of inocoterone acetate and vehicle was added to the donor compartment and a 40% w/v polyethylene glycol 400/normal saline solution was added to the receptor compartment. Simultaneous skin permeation and biotransformation studies Were conducted in a thermostated diffusion cell apparatus at 37° C. At appropriate intervals samples were withdrawn from the receptor compartment and analyzed for inocoterone acetate and its metabolite, inocoterone, by high pressure liquid chromatography. […] Each experiment was carried out in at least triplicate. This method was used in Examples 3 to 6.
Compositions of 10% w/v of inocoterone acetate in vehicle solutions were prepared by dissolving 1 g of the medicament in 10 ml of a mixture of isopropyl myristate and 95% ethanol in the following volume percent ratios: 100:0, 95:5, 70:30, 60:40, 50:50, 40:60, 30:70, 5:95 and 0:100, respectively. The in vitro skin permeation and metabolism rates were measured using the method described under the in vitro skin permeation test method. The results of these measurements, in terms of the cumulative mount of unchanged medicament and its metabolite permeated in μmoles per square centimeter with time, over 5 hours are given in FIG. 1.
In this example, the results of the use of ethanol as the polar organic solvent in combination with various fatty acid esters for the simultaneous skin permeation and metabolism of inocoterone acetate solution are shown.

For a further series, the system named is rat sebaceous gland. The series can be described thus: In vivo antiandrogen activity test, rat: volume density of smooth endoplasmic reticulum of the sebaceous gland.
A further series concerns prostate. The series can be described thus: In vivo antiandrogen activity test, rat: prostate (systemic effect).
Series [3] is described as follows: Hydrolysis in blank receptor solution. As to conditions: 40% w/v polyethylene glycol 400/normal saline, 37° C., time course of permeation experiment. The series is classed as physicochemical.
Text: as §1

Setting [4] is: Carbopol 940 gel: inocoterone acetate 10.0, butyl laurate 6.0, ethanol 50.0% w/w.
Where [5] appears, read: Carbopol 940 gel: inocoterone acetate 10.0, ethyl laurate 6.0, ethanol 50.0% w/w.
Where [6] appears, read: Carbopol 940 gel: inocoterone acetate 10.0, isopropyl myristate 6.0, ethanol 50.0% w/w.
Where [7] appears, read: vehicle 10% Butyl laurate-90% Ethanol.
The mark [8] stands for this setting: vehicle 10% Ethyl laurate-90% Ethanol.
Setting [9] is: vehicle 10% Ethyl oleate-90% Ethanol.
Setting [10] is: vehicle 10% Isopropyl palmitate-90% Ethanol.
Setting [11] is: vehicle 10% Propyl laurate-90% Ethanol.

With `CCC1=C2CC[C@]3(C)[C@@H](O)CC[C@H]3[C@@H]2CCC1=O` [Inocoterone, 6-ethyl-3αβ-methyl-1,2,3,3a,4,5,8,9,9a,9b-decahydro-7H-benz(e)inden-3-ol-7-one], the “Transdermal Flux Q1, Inocoterone” value in series [1] (setting [4]) is reported as 66.2 × 10^2 μmoles/cm^2 /5 hours; in series [1] (setting [5]) it was 52.7 × 10^2 μmoles/cm^2 /5 hours; in series [1] (setting [6]), 62.8 × 10^2 μmoles/cm^2 /5 hours; in series [2] (setting [7]), 54.5 × 10^2 μmoles/cm^2 /5 hrs; in series [2] (setting [8]), 58.3 × 10^2 μmoles/cm^2 /5 hrs; in series [2] (setting [9]) it was 36.6 × 10^2 μmoles/cm^2 /5 hrs. For the same compound, the “Transdermal Flux Q1, Inocoterone” value is on record as 27.5 × 10^2 μmoles/cm^2 /5 hrs in series [2] (setting [10]), 60.8 × 10^2 μmoles/cm^2 /5 hrs in series [2] (setting [11]) and 1.1 × 10^2 μmoles/cm^2 /5 hrs in series [2] (vehicle Ethanol).
Consider `CCC1=C2CC[C@]3(C)[C@@H](OC(C)=O)CC[C@H]3[C@@H]2CCC1=O` [Inocoterone acetate, 3β-acetoxy-6-ethyl-3αβ-methyl-1,2,3,3a, 4,5,8,9,9a,9b-decahydro-7H-benz(e)inden-7-one], for which, in the series with rat sebaceous gland (40% isopropyl myristate-60% ethanol, 0.5 mg/cm^2/day, 5 days, 5 cm^2, testosterone propionate-treated castrated rats), the “inhibition of testosterone-induced increase in volume density of smooth endoplasmic reticulum vesicles in intermediate cells of sebaceous gland” value is listed as “completely inhibited”. Further, the “inhibition of the effects of testosterone on the sebaceous gland” value with rat sebaceous gland (ethanol vehicle, 0.5 mg/cm^2/day, 5 days, 5 cm^2, testosterone propionate-treated castrated rats) stood at 60%. In addition, in the series on rat sebaceous gland (intact rats and castrated rats stimulated with testosterone propionate, topical, 0.25 to 25 mg/rat/day, 1 to 3 weeks), the “volume density of smooth endoplasmic reticulum (SER)” value is “dose related reduction in volume density of SER”. The “efficacy in isopropyl myristate-ethanol mixture” value in the series with rat sebaceous gland (isopropyl myristate-ethanol mixture compared with ethanol) is given as “greater efficacy”. Further, the “effect on prostate weight” value with prostate (intact and castrated testosterone propionate-treated rats, topical, any dose (0.25 to 25 mg/rat/day)) is “no significant effect on prostate weight at any dose”. Moreover, the “systemic antiandrogenic effect as evidenced by changes in the prostate” value in the series with prostate (isopropyl myristate-ethanol mixture, topical 0.5 mg/cm^2/day, 5 days, testosterone propionate-treated castrated rats) is “resulted in a systemic anfiandrogenic effect”. Also, the “hydrolysis in the blank receptor solution” value in series [3] is given as “No significant hydrolysis”. In addition, the “Transdermal Flux Q1, Inocoterone Acetate” value in series [1] (setting [4]) is 45.2 × 10^2 μmoles/cm^2 /5 hours; in series [1] (setting [5]), 38.4 × 10^2 μmoles/cm^2 /5 hours; in series [1] (setting [6]), 36.2 × 10^2 μmoles/cm^2 /5 hours; in series [2] (setting [7]) it was 39.9 × 10^2 μmoles/cm^2 /5 hrs; in series [2] (setting [8]), 28.1 × 10^2 μmoles/cm^2 /5 hrs; in series [2] (setting [9]), 18.5 × 10^2 μmoles/cm^2 /5 hrs. Also, the “Transdermal Flux Q1, Inocoterone Acetate” value in series [2] (setting [10]) is listed as 9.4 × 10^2 μmoles/cm^2 /5 hrs; in series [2] (setting [11]), 25.8 × 10^2 μmoles/cm^2 /5 hrs; in series [2] (vehicle Ethanol) it was 0 × 10^2 μmoles/cm^2 /5 hrs. In addition, the “Transdermal Flux Q1, Total Inocoterone” value in series [1] (setting [4]) was 111.4 × 10^2 μmoles/cm^2 /5 hours; in series [1] (setting [5]), 91.1 × 10^2 μmoles/cm^2 /5 hours; in series [1] (setting [6]), 99.0 × 10^2 μmoles/cm^2 /5 hours; in series [2] (setting [7]), 94.4 × 10^2 μmoles/cm^2 /5 hrs; in series [2] (setting [8]) it was 86.4 × 10^2 μmoles/cm^2 /5 hrs; in series [2] (setting [9]), 55.1 × 10^2 μmoles/cm^2 /5 hrs. The “Transdermal Flux Q1, Total Inocoterone” value is 36.9 × 10^2 μmoles/cm^2 /5 hrs in series [2] (setting [10]), 86.6 × 10^2 μmoles/cm^2 /5 hrs in series [2] (setting [11]) and 1.1 × 10^2 μmoles/cm^2 /5 hrs in series [2] (vehicle Ethanol). The metabolised at 5 h in series [1] (setting [4]) was determined as 59.4%; in series [1] (setting [5]), 57.8%; in series [1] (setting [6]), 63.4%; in series [2] (setting [7]), 57.7%; in series [2] (setting [8]), 67.5%; in series [2] (setting [9]), 66.4%. In addition, the metabolised at 5 h was found to be 74.5% in series [2] (setting [10]), 70.2% in series [2] (setting [11]) and 100% in series [2] (vehicle Ethanol). For the same compound, the transcutaneous penetration entry in series [2] (isopropyl myristate-ethanol mixture, Example 3) was “increased transcutaneous penetration”.
